Reference: ChEMBL document CHEMBL1144274, “Novel spiroanellated 1,2,4-trioxanes with high in vitro antimalarial activities” (Bioorg Med Chem Lett, 2005)
Values after ≈ are worked out from the molar mass of the structure shown.

Key:
Plasmodium falciparum [1] = assay: In vitro inhibition of Plasmodium falciparum K1 (0.0013 ug/mL); type: functional, organism-based
[2] = In vitro cytotoxicity against mammalian L-6 cell line; type: functional, cell-based; conditions: L6
Plasmodium falciparum [3] = assay: In vitro inhibition of Plasmodium falciparum K1 (0.2253 ug/mL); type: functional, organism-based
Plasmodium falciparum [4] = assay: In vitro inhibition of Plasmodium falciparum K1 (0.00065 ug/mL); type: functional, organism-based
Plasmodium falciparum [5] = assay: In vitro inhibition of Plasmodium falciparum K1 (0.0024 ug/mL); type: functional, organism-based
Plasmodium falciparum [6] = assay: In vitro inhibition of Plasmodium falciparum K1 (0.00054 ug/mL); type: functional, organism-based
Plasmodium falciparum [7] = assay: In vitro inhibition of Plasmodium falciparum K1 (0.0088 ug/mL); type: functional, organism-based
Plasmodium falciparum [8] = assay: In vitro inhibition of Plasmodium falciparum K1 (0.0008 ug/mL); type: functional, organism-based

With `C=C(C)C1OO[C@]2(O[C@H]1C)[C@H]1CC3C[C@@H](C1)C[C@H]2C3` (stereo partly drawn) as the compound, how does the IC50 (Plasmodium falciparum [1]) read?
Its IC50 is 4.9 nM.

What about the IC50 [2] of the same compound?
The IC50 was 1.7 µg/mL (≈ 6.43 µM).

Which IC50 (Plasmodium falciparum [3]) does the source give for `C=C(C)[C@@H]1OOC(C)(C)O[C@H]1C` here?
Its IC50 is 1310 nM.

With `C=C(C)[C@@H]1OOC2(CCCCC2)O[C@H]1C` as the compound, how does the IC50 [2] read?
The IC50 was 0.46 µg/mL (≈ 2.17 µM).

And the IC50 (Plasmodium falciparum [4])?
Its IC50 is 3.1 nM.

With `C=C(C)[C@@H]1OOC2(CCCC2)O[C@H]1C(C)C` as the compound, how does the IC50 (Plasmodium falciparum [5]) read?
The IC50 was 10.6 nM.

What about the IC50 [2] of the same compound?
Its IC50 is 0.82 µg/mL (≈ 3.62 µM).

What does the source list for `C=C(C)C1OO[C@]2(O[C@H]1C1CC1)[C@H]1CC3C[C@@H](C1)C[C@H]2C3` (stereo partly drawn)?
IC50 (Plasmodium falciparum [6]): 1.9 nM; IC50 [2]: 0.74 µg/mL (≈ 2.55 µM)

Which IC50 [2] does the source give for `C=C(C)[C@@H]1OOC2(CCCC2)O[C@H]1C(C)(C)C` here?
The IC50 was 3.7 µg/mL (≈ 15.4 µM).

What about the IC50 (Plasmodium falciparum [7]) of the same compound?
The IC50 was 36.6 nM.

For `C[C@@H]1CC[C@H]2[C@@H](C)C(=O)O[C@@H]3O[C@@]4(C)CC[C@@H]1[C@]32OO4` [ARTEMISININ], which IC50 (Plasmodium falciparum [8]) is on record?
Its IC50 is 2.8 nM.

With `O[C@H](c1cc(C(F)(F)F)nc2c(C(F)(F)F)cccc12)[C@@H]1CCCCN1` [MEFLOQUINE] as the compound, how does the IC50 [2] read?
The IC50 was 1.9 µg/mL (≈ 5.02 µM).
